Source: patent US12466822B2, “Heterocyclic compounds as immunomodulators” (Incyte Corporation, priority 2016, dated 2025)

molecular target: T1, PD-1/PD-L1 protein/protein interaction (recombinant human PD-L1 protein (19-238), recombinant human PD-1 protein (25-167)) (Homo sapiens, UniProt Q9NZQ7); experiment: PD-1/PD-L1 Homogeneous Time-Resolved Fluorescence (HTRF) Binding Assay; conditions: 25° C., PBS buffer (pH 7.4), 40 minutes preincubation with inhibitors
T1 construct: Recombinant human PD-L1 protein (19-238) with a His-tag at the C-terminus; purchased AcroBiosystems PD1-H5229 (PD-L1-His); PD1-H5257 (PD-1-Fc)
T1 sequence (Q9NZQ7 19-238): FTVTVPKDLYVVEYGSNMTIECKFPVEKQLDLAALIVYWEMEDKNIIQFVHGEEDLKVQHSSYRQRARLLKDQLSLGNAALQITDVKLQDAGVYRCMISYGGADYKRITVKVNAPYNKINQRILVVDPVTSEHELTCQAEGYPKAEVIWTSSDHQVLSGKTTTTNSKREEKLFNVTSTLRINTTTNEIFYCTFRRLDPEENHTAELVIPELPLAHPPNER
How it was run: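 HTRF read-out (665/620 nm) after 60 min at 25 °C with 1 nM Eu anti-human IgG and 20 nM APC anti-His. Beforehand, inhibitors were preincubated 40 min with Fc-PD-1 (25-167, […] as listed) and His-PD-L1 (19-238, 10 nM) in PBS pH 7.4 with Tween-20, BSA, 1% DMSO; IC50 from log-concentration curve.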

IC50, ≤ 0.01 µM:
Cc1c(-c2nc3c(s2)CN(C(=O)CN(C)CCO)C3)cccc1-c1cccc(Nc2nccc3cc(CN4CC[C@@H](C(=O)O)C4)cnc23)c1Cl [Example 96, (R)-1-((8-((2-chloro-3′-(5-(N-(2-hydroxyethyl)-N-methylglycyl)-5,6-dihydro-4H-pyrrolo[3,4-d]thiazol-2-yl)-2′-methyl-[1,1′-biphenyl]-3-yl)amino)-1,7-naphthyridin-3-yl)methyl)pyrrolidine-3-carboxylic acid]
Cc1c(-c2nc3c(s2)CN(C(=O)CN2CC[C@H](O)C2)C3)cccc1-c1cccc(Nc2nccc3cc(CN4CC[C@@H](C(=O)O)C4)cnc23)c1Cl [Example 97, (R)-1-((8-((2-chloro-3′-(5-(2-((S)-3-hydroxypyrrolidin-1-yl)acetyl)-5,6-dihydro-4H-pyrrolo[3,4-d]thiazol-2-yl)-2′-methyl-[1,1′-biphenyl]-3-yl)amino)-1,7-naphthyridin-3-yl)methyl)pyrrolidine-3-carboxylic acid]
Cc1c(-c2nc3c(s2)CN(C(=O)CN2CC(O)C2)C3)cccc1-c1cccc(Nc2nccc3cc(CN4CC[C@@H](C(=O)O)C4)cnc23)c1Cl [Example 98, (R)-1-((8-((2-chloro-3′-(5-(2-(3-hydroxyazetidin-1-yl)acetyl)-5,6-dihydro-4H-pyrrolo[3,4-d]thiazol-2-yl)-2′-methyl-[1,1′-biphenyl]-3-yl)amino)-1,7-naphthyridin-3-yl)methyl)pyrrolidine-3-carboxylic acid]
Cc1c(NC(=O)c2nc3c(n2C)CCN(C[C@H]2CC[C@@H](C(=O)O)CC2)C3)cccc1-c1cccc(Nc2nccc3cc(CN4CC[C@@H](O)C4)cnc23)c1C [Example 99, Cis-4-((2-(3′-(3-(((R)-3-hydroxypyrrolidin-1-yl)methyl)-1,7-naphthyridin-8-ylamino)-2,2′-dimethylbiphenyl-3-ylcarbamoyl)-1-methyl-6,7-dihydro-1H-imidazo[4,5-c]pyridin-5(4H)-yl)methyl)cyclohexanecarboxylic acid]
